Data taken from patent US20260263584A1, “Modulating the Innate Immunity of RNA” (priority 2023, published 2026).

Tested on: Hela cells
Type: cell-based, human

SMILES: Cn1c(=O)n(C2CCC(=O)NC2=O)c2cccc(C#CCOC3CCN(C[C@H]4CC[C@H](n5cc(NC(=O)c6cnn7ccc(N8C[C@H]9C[C@@H]8CO9)nc67)c(C(F)F)n5)CC4)CC3)c21 (stereo partly drawn) [PF-07911620, N-{3-(difluoromethyl)-1-[(1S,4R)-4-({4-[(3-{1-[(3S)-2,6-dioxopiperidin-3-yl]-3-methyl-2-oxo-2,3-dihydro-1H-benzimidazol-4-yl}prop-2-yn-1-yl)oxy]piperidin-1-yl}methyl)cyclohexyl]-1H-pyrazol-4-yl}-5-[(1R,4R)-2-oxa-5-azabicyclo[2,2,1]heptan-5-yl]pyrazolo[1,5-a]pyrimidine-3-carboxamide]
- frequency of HA-positive cells, higher than vehicle controls: 5.5 fold
